The source of these data is patent US10322137B2, “Platinum compounds, compositions, and uses thereof” (PLACON THERAPEUTICS, INC., priority 2014, dated 2019).

One data set has as its system H460 tumors. In words: Tumor platinum levels in H460 tumor-bearing nude mice (ICP-MS). The data set is classed as in vivo. The note with it: dosed at 4 mg/kg, 24-hour time point. The protocol: To examine the ability of compounds disclosed herein to accumulate in tumors, a murine cancer model was used. Animals were inoculated with 5×10^5 H460 […] lung cancer cells via subcutaneous injection to the flank. Tumors were allowed to reach an approximate volume of ˜500 mm^3. Animals were then randomized into treatment groups of 3 animals per time point and were dosed at 4 mg/kg. The 24-hour time point was used as a benchmark across compounds.
Tumor platinum levels were determined by inductively coupled plasma mass spectrometry (ICP-MS). Tumors were excised from animals and dissolved in fuming nitric acid (60% w/w) by adding four parts nitric acid to 1 part tumor w/w and heating overnight at 60° C. The resulting digest was diluted 1:10 in ICP-MS analysis buffer (1% nitric acid, 2% Triton® X-100), and directly introduced into the ICP-MS unit by peristaltic pump. The end dilution factor for the samples as introduced to the ICP-MS was 50×.

For data set [1], the system named is BxPC-3 (pancreatic) xenografts, KRAS wild type. In words: BxPC-3 xenograft tumor growth inhibition. The note with it: Table 4-2; compound 5 at 15 mg/kg iv twice weekly. The data set is classed as in vivo, mice. As for the experimental part: (§1) Tumor measurements were taken twice weekly, using vernier calipers.
(§2) All statistical analyses were performed using GraphPad PRISM®. Version 6.00.

For data set [2], the system named is MX-1 human breast cancer xenograft (BRCA1 and BRCA2 mutant). Put plainly: MX-1 human breast cancer xenograft study. The data set is classed as in vivo, mice. As for the experimental part: as §1, §2
Tumor volumes of MX-1 induced xenografts in mice were measured after multiple intravenous doses of compound 8 at 15 mg/kg at day 1, day 5, day 8 and day 12 (two times per week for two weeks) for the main study group. […] MX-1 cell line is estrogen receptor negative and Her2 normal. It is BRCA1 and BRCA2 mutant: BRCA1 truncating mutation (3363delGAAA) and BRCA2 mutations (16864A>C, Asn289His, and 22184A>G, Asn991Asp). Satellite groups (n=5) were collected on Day 9 for platinum tumor measurements. […] Only one tumor from the 10 mg/kg group began to grow back at on Day 71, with a volume of 39 mm^3 at end of study, Day 75.
On the technique in general: In xenograft studies the graft and the host belong to different species.

Data set [3] concerns the target albumin tryptic peptide T3 (Homo sapiens, UniProt P02768). In words: LC MS/MS analysis with albumin tryptic peptide T3. The data set is classed as binding. Conditions: FIG. 11B. The source says:
Signals of T3 endogenous conjugates and T3-Compound 8 conjugates were observed and were evidence that Compound 8 binds to T3.

For data set [4] the following is noted: in vivo.
Method: (§3) Platinum concentrations in rat (n=3) and dog (n=3) were both measured in a course of 100 hours and 400 hours, respectively.
The conditions of data set [5]: in vivo. This is another data set of the same source.
Method: as §3
The subject of data set [6] is NCI-H520 lung cancer (NSCLC) model. Put plainly: NCI-H520 multiple dose study: tumor volume, platinum levels, IHC and TUNEL. The data set is classed as in vivo. Conditions: day 10, FIG. 24 and 25. The protocol: Tumor volumes and platinum levels were tracked over a course of 32 days after treatment of multiple doses of compound 8 (dosed at days 0, 3, 7 and 10) in lung cancer (NSCLC) model NCI-H520. Compound 8 was dosed at 15 mg/kg.
Cell dedifferentiation and apoptosis were studied with immunohistochemical (IHC) and TUNEL stainings.

The test system of data set [7] is A2780 (ovarian) xenografts. The note with it: compound 8 at 20 mg/kg, FIG. 20.
Method: In these experiments, the ability of compounds to affect the growth of human Calu-6 NSCLC (non-small cell lung cancer) A2780 (ovarian), MIA Paca-2 (pancreatic) and BxPC-3 (pancreatic) xenografts was tested. […] For the MIA Paca-2, BxPC-3 in vivo studies, the tumor material was maintained by serial engraftment in female nude NCR nude mice. To initiate tumor growth, a 1 mm^3 fragment was implanted subcutaneously in the right flank of each test animal. The animals were 9 and 10-11 weeks old at the time the study started for BxPC-3 and MIA Paca-2 models, respectively. For the MX-1 in vivo studies, tumor material was maintained by serial engraftment in athymic nude mice. To initiate tumor growth a 3×3 mm pieces implanted subcutaneously in the right flank of each test animal. The animals were 5 weeks old at the time of implantation.
Tumor measurements were taken twice weekly, using vernier calipers. Tumor volume was calculated using the formula: V=0.5×width×width×length.
When tumors approached a volume of 100 mm^3, mice were randomized into three groups of ten animals. […] Mice were dosed twice weekly for the duration of the study. […] Twenty-four hours after the final dose tumor volumes were measured again for calculation of tumor growth inhibition. […] Final tumor volumes were analyzed using with a one-way analysis of variance and Tukey multiple comparison test.

Sequence of albumin tryptic peptide T3 (P02768 45-65 limits assumed): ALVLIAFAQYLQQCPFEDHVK

In the case of `O=C1[O][Pt]2([NH][C@@H]3CCCC[C@H]3[NH]2)[O]C1=O` [Oxaliplatin], the Platinum in tumor with H460 tumors is recorded as 0.12 mM/mmole/kg platinum dosed. The compound also registered a TGI % in data set [1] of 21.0%.
Turning to “acetate 6-(2,5-dioxo-2H-pyrrol-1(5H)-yl) hexanoate oxaliplatin [Compound 1]”, the Platinum in tumor with H460 tumors is listed as 0.57 mM/mmole/kg platinum dosed.
On to `N.N.[Cl][Pt][Cl]` [Cisplatin, reference compound], for which, in data set [2] (3 mg/kg, day 1, 5, 8, 12), the “TGI % at Day 12” value was 95.1%. In data set [2] (cisplatin treated group, 3 mg/kg), the “tumor regrowth at end of study, Day 75” value is recorded as “no tumor regrowth”. The Platinum in tumor in the data set on H460 tumors is 0.27 mM/mmole/kg platinum dosed.
Consider `CC(=O)[O][Pt]([NH2])([NH2])([Cl])([Cl])[O]C(=O)NCCCCCN1C(=O)C=CC1=O` [Compound 8], for which the “binding to albumin tryptic peptide T3” value in data set [3] was “binds to T3”. In data set [4], the “Half-life Rat” value was found to be 44 h. Further, the “tumor regrowth at end of study, Day 75” value in data set [2] (15 mg/kg group) is reported as “no tumor regrowth”. Also, the tumor volume outcome in data set [2] (day 12) is listed as “Tumor disappeared”. Also, the “platinum delivered to the tumor versus cisplatin” value in data set [2] (satellite groups, Day 9, FIG. 30) is reported as “higher concentrations of platinum to the tumor than cisplatin”. For the same compound, the “Half-life Dog” value in data set [5] is reported as 174 h. Moreover, the “apoptosis and dedifferentiation (IHC, TUNEL)” value in data set [6] is “significant and sustained increase in apoptosis and dedifferentiation”. Moreover, the “tumor inhibition versus cisplatin” value in data set [7] is reported as “superior efficacy in tumor inhibition compared to cisplatin”.
